From ChEMBL document CHEMBL5104180, “Design, Synthesis, and Evaluation of New Sugar-Substituted Imidazole Derivatives as Selective c-MYC Transcription Repressors Targeting the Promoter G-Quadruplex” (J Med Chem, 2022) come the findings set out here.

Data set [1] deals with Quadruplex DNA. As to the kind of experiment: Stabilization of c-MYC G4 quadruplex DNA Pu22 (unknown origin) assessed as change in melting temperature at 2 uM by CD spectroscopy. It is filed as nucleic-acid assay.
The target of data set [2] is Quadruplex DNA. As to the kind of experiment: Binding affinity to c-MYC G4- quadruplex DNA Pu22 (unknown origin) assessed as binding constant by SPR analysis. It is filed as nucleic-acid assay. A general note: In SPR one partner is held on a chip, and binding of the other changes the refractive index at the surface.
Data set [3] can be described thus: Binding affinity to G-rich KRAS DNA (unknown origin) assessed as binding constant by SPR analysis.
The nature of data set [4]: Binding affinity to G-rich HRAS DNA (unknown origin) assessed as binding constant by SPR analysis.
Data set [5] in a line: Binding affinity to G-rich NRAS RNA (unknown origin) assessed as binding constant by SPR analysis.
Data set [6] can be described thus: Binding affinity to human G-rich Htg22 DNA assessed as binding constant by SPR analysis.
A short description of data set [7]: Binding affinity to Hairpin DNA (unknown origin) assessed as binding constant by SPR analysis.
In data set [8] the target is Quadruplex DNA. As to the kind of experiment: Binding affinity to c-MYC G4 quadruplex DNA Pu22 (unknown origin) assessed as binding constant by SPR analysis. It is filed as nucleic-acid assay.
Data set [9] has as its target RNA. Nature of the data set: Binding affinity to NRAS RNA mutant (unknown origin) assessed as binding constant by SPR analysis.
Data set [10] relates to NM23-H2/c-MYC G4 quadruplex DNA. Nature of the data set: Disruption of NM23-H2/c-MYC G4 quadruplex DNA (unknown origin) interaction incubated for 1 hrs by ELISA. It counts as protein assay. A general note: ELISA stands for enzyme-linked immunosorbent assay.
Data set [11] has as its system BLM/c-MYC G4 quadruplex DNA. As to the kind of experiment: Disruption of BLM/c-MYC G4 quadruplex DNA (unknown origin) interaction incubated for 1 hrs by ELISA. It is filed as protein assay.
Data set [12] concerns DHX36/c-MYC G4 quadruplex DNA. Nature of the data set: Disruption of DHX36/c-MYC G4 quadruplex DNA (unknown origin) interaction incubated for 1 hrs by ELISA. It is filed as protein assay.
For data set [13], the system named is HepG2. Nature of the data set: Cytotoxicity against human HepG2 cells assessed as reduction in cell viability measured after 48 hrs by MTT assay. It is filed as functional, cell-based. The settings on record: HepG2, 48 h. Background: Formazan colour is commonly taken as a measure of viable cells.
For data set [14], the system named is MDA-MB-231. Nature of the data set: Cytotoxicity against human MDA-MB-231 cells assessed as reduction in cell viability measured after 48 hrs by MTT assay. It is filed as functional, cell-based. Particulars: MDA-MB-231, 48 h.
Data set [15] can be described thus: Cytotoxicity against human HBL-100 cells assessed as reduction in cell viability measured after 48 hrs by MTT assay. It counts as toxicity, cell-based.

As a reminder, the ΔTm is the change in melting temperature against a reference sample. The term Kd denotes the concentration at which binding is half-saturated. The IC50 is the point on the concentration scale where inhibition reaches its midpoint. For `CCn1c2ccccc2c2cc(-c3nc(-c4ccc(N5CCN(C)CC5)cc4)c(-c4ccc(N5CCN(C)CC5)cc4)n3-c3ccc(OCCOCCO)cc3)ccc21`, the ΔTm in [1] is 20.8 °C. Further, the Kd is 2.6 µM in data set [2]; 8.2 µM in data set [3]; 5.9 µM in [4]; 15.8 µM in [5]; greater than 20 µM in [6]; greater than 20 µM in data set [7]. Moreover, the dissociation constant (Kd) in data set [8] and in [9] was greater than 20 µM each time. Further, the IC50 in data set [10] was found to be 1.1 µM; in data set [11], 3.9 µM; in data set [12] it was 8.2 µM.

In the case of `COc1ccc(-n2c(-c3ccc4c(c3)c3ccccc3n4Cc3cn(CCOCCO[C@@H]4O[C@H](COC(C)=O)[C@@H](OC(C)=O)[C@H](OC(C)=O)[C@H]4OC(C)=O)nn3)nc(-c3ccc(N4CCN(C)CC4)cc3)c2-c2ccc(N3CCN(C)CC3)cc2)cc1`, the ΔTm in [1] was 15.9 °C. Moreover, the Kd in data set [2] is 3 µM; in [3], greater than 20 µM; in data set [4] it was greater than 20 µM; in data set [5] it was greater than 20 µM; in [6], greater than 20 µM; in data set [7], greater than 20 µM. Further, the equilibrium dissociation constant (Kd) in data set [8] and in [9] was greater than 20 µM in each case. Further, the IC50 in [13] was found to be 11 µM; in data set [14], 6.4 µM. Besides, the half-inhibitory concentration (IC50) at 48 h in [15] amounted to 19.3 µM.

Take `CCn1c2ccccc2c2cc(-c3nc(-c4ccc(N5CCN(C)CC5)cc4)c(-c4ccc(N5CCN(Cc6cn(CCOCCO[C@@H]7O[C@H](CO)[C@@H](O)[C@H](O)[C@H]7O)nn6)CC5)cc4)[nH]3)ccc21` (single isomer, unassigned): the ΔTm in [1] stood at 19.2 °C. The dissociation constant Kd in data set [2] was 1.7 µM; in data set [3], 4.8 µM; in data set [4], 2.5 µM; in data set [5] it was 11.7 µM; in [6], greater than 20 µM; in data set [7], greater than 20 µM. Besides, the Kd in data set [8] and in [9] was greater than 20 µM in each case.

For the molecule `CCn1c2ccccc2c2cc(-c3nc(-c4ccc(N5CCN(C)CC5)cc4)c(-c4ccc(N5CCN(C)CC5)cc4)n3-c3ccc(OCCCOC4(C)O[C@H]5O[C@H](COC(C)=O)[C@@H](OC(C)=O)[C@H](OC(C)=O)[C@H]5O4)cc3)ccc21` (single isomer, unassigned), in [1], the ΔTm amounted to 16 °C. Besides, the Kd was 4.1 µM in [2]; greater than 20 µM in data set [3]; greater than 20 µM in data set [4]; greater than 20 µM in data set [5]; greater than 20 µM in data set [6]; greater than 20 µM in data set [7]. Further, the equilibrium dissociation constant (Kd) in data set [8] and in data set [9] was greater than 20 µM throughout. Further, the results for the IC50 in [13] and in data set [14] were 7.8 µM and 3.6 µM, respectively. Also, in data set [15], the IC50 at 48 h is 4.4 µM.

With `CCn1c2ccccc2c2cc(-c3nc(-c4ccc(N5CCN(C)CC5)cc4)c(-c4ccc(N5CCN(C)CC5)cc4)n3-c3ccc(OCCOCCO[C@@H]4O[C@H](CO)[C@@H](O)[C@H](O)[C@H]4O)cc3)ccc21` (single isomer, unassigned), the ΔTm in data set [1] was found to be 18 °C. Also, the Kd in data set [2] was 1.6 µM; in data set [3] it was greater than 20 µM; in [4] it was greater than 20 µM; in [5], greater than 20 µM; in data set [6], greater than 20 µM; in data set [7], greater than 20 µM. Also, the Kd in data set [8] and in data set [9] was greater than 20 µM in each case. Besides, the IC50 in data set [13] and in data set [14] was greater than 32 µM each time.

On to `CCn1c2ccccc2c2cc(-c3nc(-c4ccc(N5CCN(C)CC5)cc4)c(-c4ccc(N5CCN(C)CC5)cc4)n3-c3ccc(OCCCO[C@@H]4O[C@H](CO)[C@@H](O)[C@H](O)[C@H]4O)cc3)ccc21` (single isomer, unassigned), for which, in [1], the shift in melting temperature (ΔTm) was 16.7 °C. Further, the equilibrium dissociation constant (Kd) in data set [2] was 1.8 µM; in [3], 15 µM; in [4], 14.3 µM; in [5] it was greater than 20 µM; in data set [6] it was greater than 20 µM; in data set [7] it was greater than 20 µM. Further, the Kd in data set [8] and in data set [9] was greater than 20 µM throughout. Moreover, the 50% inhibitory concentration (IC50) in [13] and in data set [14] was greater than 32 µM throughout.

Consider `CCn1c2ccccc2c2cc(-c3nc(-c4ccc(N5CCN(C)CC5)cc4)c(-c4ccc(N5CCN(C)CC5)cc4)n3-c3ccc(OCCOCCO[C@@H]4O[C@H](CO)[C@@H](O)[C@H](O)[C@H]4NC(=O)C(F)(F)F)cc3)ccc21` (single isomer, unassigned), for which the thermal shift (ΔTm) in [1] was found to be 16.3 °C. Besides, the Kd in [2] was 4.1 µM; in [3], 17.9 µM; in [4] it was 19.9 µM; in data set [5], 16.1 µM; in data set [6], greater than 20 µM; in [7], greater than 20 µM. In addition, the Kd in data set [8] and in data set [9] was greater than 20 µM each time. The IC50 in [13] and in data set [14] was greater than 32 µM each time.

Turning to `CCn1c2ccccc2c2cc(-c3nc(-c4ccc(N5CCN(C)CC5)cc4)c(-c4ccc(N5CCN(Cc6cn(CCOCCO[C@@H]7O[C@H](COC(C)=O)[C@@H](OC(C)=O)[C@H](OC(C)=O)[C@H]7OC(C)=O)nn6)CC5)cc4)[nH]3)ccc21` (single isomer, unassigned), the ΔTm in data set [1] turned out to be 17.8 °C. The dissociation constant (Kd) is 1 µM in data set [2]; 17.2 µM in data set [3]; 8.2 µM in data set [4]; greater than 20 µM in [5]; greater than 20 µM in data set [6]; greater than 20 µM in [7]. Also, the dissociation constant (Kd) in data set [8] and in [9] was greater than 20 µM each time. Besides, the 50% inhibitory concentration (IC50) in data set [13] and in data set [14] was greater than 32 µM throughout.

As to `CCn1c2ccccc2c2cc(-c3nc(-c4ccc(N5CCN(C)CC5)cc4)c(-c4ccc(N5CCN(Cc6cn([C@@H]7O[C@H](CO)[C@H](O)[C@H](O)[C@H]7O)nn6)CC5)cc4)[nH]3)ccc21` (single isomer, unassigned), the ΔTm in data set [1] was 18.4 °C. For the same molecule, the Kd in data set [2] was 1.6 µM; in data set [3], 5.8 µM; in data set [4], 2.7 µM; in data set [5], 9.9 µM; in [6], greater than 20 µM; in [7] it was greater than 20 µM. The Kd in data set [8] and in data set [9] was greater than 20 µM in each case.

As for `CCn1c2ccccc2c2cc(-c3nc(-c4ccc(N5CCN(C)CC5)cc4)c(-c4ccc(N5CCN(C)CC5)cc4)n3-c3ccc(OCCCO[C@@H]4O[C@H](CO)[C@H](O)[C@H](O)[C@H]4O)cc3)ccc21` (single isomer, unassigned), in [1], the ΔTm came out at 16.9 °C. Also, the Kd in data set [2] was 1.4 µM; in data set [3] it was greater than 20 µM; in data set [4] it was 16.6 µM; in data set [5], greater than 20 µM; in data set [6] it was greater than 20 µM; in data set [7] it was greater than 20 µM. Further, the Kd in data set [8] and in data set [9] was greater than 20 µM throughout. In addition, the concentration for half-maximal inhibition (IC50) in data set [13] and in data set [14] was greater than 32 µM in each case.

Turning to `COc1ccc(-n2c(-c3ccc4c(c3)c3ccccc3n4Cc3cn(CCOCCO[C@@H]4O[C@H](CO)[C@@H](O)[C@H](O)[C@H]4O)nn3)nc(-c3ccc(N4CCN(C)CC4)cc3)c2-c2ccc(N3CCN(C)CC3)cc2)cc1` (single isomer, unassigned), the ΔTm in data set [1] turned out to be 17.7 °C. Further, the Kd was 2.2 µM in [2]; 17.8 µM in data set [3]; 15.5 µM in data set [4]; 19.2 µM in data set [5]; greater than 20 µM in data set [6]; greater than 20 µM in data set [7]. Moreover, the dissociation constant (Kd) in [8] and in data set [9] was greater than 20 µM in each case. Also, the IC50 in data set [13] and in [14] was greater than 32 µM each time.

On to `CCn1c2ccccc2c2cc(-c3nc(-c4ccc(N5CCN(C)CC5)cc4)c(-c4ccc(N5CCN(C)CC5)cc4)n3CCOCCO[C@@H]3O[C@H](CO)[C@@H](O)[C@H](O)[C@H]3O)ccc21` (single isomer, unassigned), for which, in data set [1], the ΔTm was 16.3 °C. In addition, the dissociation constant Kd is 3.5 µM in data set [2]; 12.9 µM in data set [3]; 13.7 µM in [4]; greater than 20 µM in data set [5]; greater than 20 µM in data set [6]; greater than 20 µM in data set [7]. In addition, the Kd in [8] and in data set [9] was greater than 20 µM in each case.

For the molecule `CCn1c2ccccc2c2cc(-c3nc(-c4ccc(N5CCN(C)CC5)cc4)c(-c4ccc(N5CCN(C)CC5)cc4)n3-c3ccc(OCCOCCO[C@@H]4O[C@H](CO)[C@H](O)[C@H](O)[C@H]4O)cc3)ccc21` (single isomer, unassigned), in data set [1], the thermal shift (ΔTm) worked out at 16.2 °C. For the same molecule, the Kd was 2 µM in [2]; 18.2 µM in data set [3]; 14.4 µM in [4]; 16.4 µM in [5]; greater than 20 µM in [6]; greater than 20 µM in [7]. The dissociation constant Kd in [8] and in data set [9] was greater than 20 µM in each case. The IC50 in [13] and in [14] was greater than 32 µM throughout.

Turning to `CCn1c2ccccc2c2cc(-c3nc(-c4ccc(N5CCN(C)CC5)cc4)c(-c4ccc(N5CCN(Cc6cn([C@@H]7O[C@H](CO)[C@@H](O)[C@H](O)[C@H]7O)nn6)CC5)cc4)[nH]3)ccc21` (single isomer, unassigned), in data set [1], the ΔTm came out at 15.8 °C. Further, the Kd in [2] was 1.9 µM; in data set [3] it was 7 µM; in [4], 3.3 µM; in data set [5], 11.8 µM; in [6], greater than 20 µM; in data set [7] it was greater than 20 µM. The Kd in [8] and in [9] was greater than 20 µM each time.
